# Bridge positions count the residues as written; N and C are the ends. Square brackets hold non-standard residues; d marks the D form. Primed or numbered codes have the meaning given here. Ends that are not written are not given here. * marks the point of attachment. Lys(N3) = [N-]=[N+]=NCCCC[C@H](N)C(=O)O; Ttds = NCCCOCCOCCOCCCNC(=O)CCC(=O)*; hCys = N[C@@H](CCS)C(=O)O; PEG4′ = not defined here
# Key:
# [1] = test system: Human aortic endothelial cells; experiment: Human aortic endothelial cells grown 48 h on bare or peptide-coated nitinol disks; F-actin and CD31 fluorescence image analysis; type: cell-based; conditions: for CD31 expression, Integrated Density / F-actin expression (cellular stress), Integrated Density: HAEC 48 h on coated nitinol disks; for CD31 expression, Integrated Density: anti-CD31 domain 1 antibody, compared to other modified disks and bare controls, FIGS. 2, 4, 5; for ratio between CD31 and F-actin expression: compared to bare metal and disks coated with PDA only, FIG. 6; for CD31/Actin score: Example 2, FIG. 25, compared to bare metal disks or disks coated with PDA alone; for F-actin expression (cellular stress), Integrated Density: phalloidin staining, compared to bare metal, FIGS. 2, 3, 5
# Description: Nitinol disks are left untouched (bare metal) or coated with a domain 1, domain 2 or domain 1 and 2 CD31 analog peptide. The tested peptide is grafted to the nitinol disk following a polydopamine, DBCO-PEG4-amine and azide CD31 derivative peptide using a sequential dip-coating layering procedure. After this step, all the disks are incubated with Human aortic endothelial cells for 48h. Disks are then rinsed and the cells are fixed in a formalin solution before staining. The staining is fulfilled using phalloidin coupled to AlexaFluor®488 dye (green fluorescence for Actin), DAPI is used for DNA staining and a domain 1 CD31 antibody coupled to APC is used for external Domain 1 staining. The cell adhesion and Actin/CD31 expression was evaluated by image analysis of the surface after staining.
# In particular, as per FIG. 2 the bare or coated nitinol disks were placed at the bottom of culture wells. Primary Human Aortic Endothelial Cells (HAEC) were allowed to grow on the disks for a period of 48 h. The disks were thereafter rinsed with phosphate buffered saline, fixed in formalin, and processed for fluorescence microscopy. Disk-adherent cells were immersed in a solution comprising Hoechst 33342 (1 μg/ml, to stain the nuclei), phalloidin coupled to AlexaFluor®488 dye (0.5 μM, to stain F-actin fibers) and a monoclonal antibody directed against CD31 domain 1, coupled to allophycocyanin (to detect the presence and localization of intact CD31 at the cell surface) for 1 hour at 37° C., washed and mounted face down on glass bottom imaging chambers for imaging with an inverted fluorescence microscope.
# Surface type is indicated on the Y axis, data are expressed as average±SD (N=6/surface type). Each dot corresponds to a specific surface modification. The F-actin expression relates the cellular stress of the cell in presence of the exogenous material.
# In FIG. 4 the surface type is indicated on the Y axis. Each dot corresponds to a specific surface modification. Data are expressed as “Integrated Density” average±SD (N=6/surface type). CD31 expression relates the capacity of endothelial cells to adopt a physiologic phenotype while growing on a given substrate. An important variability is observed in terms of CD31 expression by HAEC according to the surface modification of the nitinol disks.
# The effect of different peptides, belonging to the different groups, were tested in batches following the same protocol as in FIG. 6. Different peptides from each group were tested in batches and the effect of individual peptides was repeatedly assessed in separate experiments. Data from all experiments were obtained by computer-assisted analysis of images of the disk side covered with endothelial cells, captured in the blue, green and red channel of an inverted fluorescence microscope. The functional score of the peptides belonging to the different groups was calculated by multiplying the number of cells (as detected by the number of blue, Dapi+ nuclei) for the integrated density of CD31 expression (red signal provided by the binding of a mouse anti-human CD31 monoclonal antibody, clone 9G11, conjugated allophycocyanin) and their product being divided for the integrated density of the F-actin polymerization (Phalloidin coupled to a green fluorochrome).
# The same protocol as in Example 1 was followed, using peptides according to the invention (SP547, SP548 SP745, SP1374, SP1072, SP1070, SP1071, SP1379 and SP1383) as defined above and the prior art peptide P8RI of sequence KWPALFVR (SEQ ID NO: 52).
# The “CD31/Actin” score, resulting from the integrated density of CD31 immunostaining signal divided by the signal of phalloidin, which binds to the polymerized F-actin of the cytoskeleton, has been used to identify the physiological/non-stressed character of the arterial endothelial cells growing onto the surface of experimental disks placed at the bottom of culture wells. […]
# [2] = immobilized peptide, in vivo; cited from earlier work
# endothelial cells = conditions: immobilized peptide, cited from earlier work
# CD31 = conditions: soluble peptide; cited from earlier work
substance,measurement,setting,value
Ac-K(N3)-(Ttds)4-PRhCTLDKKEAIQGGIVRVNhCSVPEEK-CONH2 ({Ac-Lys(N3)-Ttds-Ttds-Ttds-Ttds}-PR[hCys]TLDKKEAIQGGIVRVN[hCys]SVPEEK-NH2; disulfide 3-20) [SP1380],"CD31 expression, Integrated Density",[1],evident positive effect in terms of CD31 expression
same,ratio between CD31 and F-actin expression,[1],higher CD31/actin ratio
Ac-K(N3)-GGSGGSGG-YKDDVLFYNISSMKST-NH2 (Ac-[Lys(N3)]GGSGGSGGYKDDVLFYNISSMKST-NH2; SMILES CC[C@H](C)[C@H](NC(=O)[C@H](CC(N)=O)NC(=O)[C@H](Cc1ccc(O)cc1)NC(=O)[C@H](Cc1ccccc1)NC(=O)[C@H](CC(C)C)NC(=O)[C@@H](NC(=O)[C@H](CC(=O)O)NC(=O)[C@H](CC(=O)O)NC(=O)[C@H](CCCCN)NC(=O)[C@H](Cc1ccc(O)cc1)NC(=O)CNC(=O)CNC(=O)[C@H](CO)NC(=O)CNC(=O)CNC(=O)[C@H](CO)NC(=O)CNC(=O)CNC(=O)[C@H](CCCCN=[N+]=[N-])NC(C)=O)C(C)C)C(=O)N[C@@H](CO)C(=O)N[C@@H](CO)C(=O)N[C@@H](CCSC)C(=O)N[C@@H](CCCCN)C(=O)N[C@@H](CO)C(=O)N[C@H](C(N)=O)[C@@H](C)O) [SP547],CD31/Actin score,[1],equivalent to those of sections coated by other peptides according to the invention
Ac-K(N3)-PEG4-PRVTLDKKEAIQGGIVRVNSSVPEEK-CONH2 (Ac-[Lys(N3)][PEG4′]PRVTLDKKEAIQGGIVRVNSSVPEEK-NH2) [SP1071],CD31/Actin score,[1],significantly higher
Ac-YKDDVLFYNISSMKST-GGSGGSGG-K(N3)-NH2 (Ac-YKDDVLFYNISSMKSTGGSGGSGG[Lys(N3)]-NH2; SMILES CC[C@H](C)[C@H](NC(=O)[C@H](CC(N)=O)NC(=O)[C@H](Cc1ccc(O)cc1)NC(=O)[C@H](Cc1ccccc1)NC(=O)[C@H](CC(C)C)NC(=O)[C@@H](NC(=O)[C@H](CC(=O)O)NC(=O)[C@H](CC(=O)O)NC(=O)[C@H](CCCCN)NC(=O)[C@H](Cc1ccc(O)cc1)NC(C)=O)C(C)C)C(=O)N[C@@H](CO)C(=O)N[C@@H](CO)C(=O)N[C@@H](CCSC)C(=O)N[C@@H](CCCCN)C(=O)N[C@@H](CO)C(=O)N[C@H](C(=O)NCC(=O)NCC(=O)N[C@@H](CO)C(=O)NCC(=O)NCC(=O)N[C@@H](CO)C(=O)NCC(=O)NCC(=O)N[C@@H](CCCCN=[N+]=[N-])C(N)=O)[C@@H](C)O) [SP548],CD31/Actin score,[1],equivalent to those of sections coated by other peptides according to the invention
"KWPALFVR [P8RI, prior art CD31-mimetic octa-peptide]",integration of endovascular devices,[2],enhances the integration of endovascular devices in vivo
same,adhesion of endothelial cells,endothelial cells; in vitro,increases the adhesion of endothelial cells in vitro
same,blood element reaction,endothelial cells,reduces the blood element reaction
same,action on CD31,CD31,acts like a CD31 agonist
RDQNFVILEFP-PEG4-K(N3)-NH2 [SP1070],CD31/Actin score,[1],significantly higher
same,"F-actin expression (cellular stress), Integrated Density",[1],does not show an influence on the cellular stress
SHQMLFYKDDVLFYNISSS-GGSGGSGG-K(N3)-CONH2 (SHQMLFYKDDVLFYNISSSGGSGGSGG[Lys(N3)]-NH2; N-terminus assumed; SMILES CC[C@H](C)[C@H](NC(=O)[C@H](CC(N)=O)NC(=O)[C@H](Cc1ccc(O)cc1)NC(=O)[C@H](Cc1ccccc1)NC(=O)[C@H](CC(C)C)NC(=O)[C@@H](NC(=O)[C@H](CC(=O)O)NC(=O)[C@H](CC(=O)O)NC(=O)[C@H](CCCCN)NC(=O)[C@H](Cc1ccc(O)cc1)NC(=O)[C@H](Cc1ccccc1)NC(=O)[C@H](CC(C)C)NC(=O)[C@H](CCSC)NC(=O)[C@H](CCC(N)=O)NC(=O)[C@H](Cc1c[nH]cn1)NC(=O)[C@@H](N)CO)C(C)C)C(=O)N[C@@H](CO)C(=O)N[C@@H](CO)C(=O)N[C@@H](CO)C(=O)NCC(=O)NCC(=O)N[C@@H](CO)C(=O)NCC(=O)NCC(=O)N[C@@H](CO)C(=O)NCC(=O)NCC(=O)N[C@@H](CCCCN=[N+]=[N-])C(N)=O) [SP745],CD31/Actin score,[1],significantly higher
[Ac-K(N3)-(Ttds)4-PRVTLDKKEAIQGGIVRVNSSVPEEK-Ttds-K^#(CH2CO)-CONH2]-[QHQMLFYhC^#DDVLFYNISSMK-CONH2] (chain 1 {Ac-Lys(N3)-Ttds-Ttds-Ttds-Ttds}-PRVTLDKKEAIQGGIVRVNSSVPEEK-{Ttds-K(CH2CO)-NH2}; chain 2 QHQMLFY[hCys]DDVLFYNISSMK-NH2; also: thioether at chain B 8 to a chain's C-terminus) [SP1383],CD31/Actin score,[1],significantly higher
[^#CH2CONH2GTYKSTVIVNNKEKTTAEYQ-(Ttds)4-K(N3)-NH2]-[QHQMLFYhC^#DDVLFYNISSMK-CONH2] (chain 1 GTYKSTVIVNNKEKTTAEYQ-{Ttds-Ttds-Ttds-Ttds-Lys(N3)-NH2}; chain 2 QHQMLFY[hCys]DDVLFYNISSMK-NH2; not fully specified (N-terminus); also: thioether at chain B 8 to a chain's N-terminus) [SP1379],CD31/Actin score,[1],significantly higher
hCHQMLFYKDDVLFYNISShCK-Ttds-Ttds-Ttds-Ttds-K(N3)-CONH2 ([hCys]HQMLFYKDDVLFYNISS[hCys]K-{Ttds-Ttds-Ttds-Ttds-Lys(N3)-NH2}; cysteine pairing not given here) [SP1374],CD31/Actin score,[1],significantly higher
same,"CD31 expression, Integrated Density",[1]; listed as 1374,evident positive effect in terms of CD31 expression
same,"CD31 expression, Integrated Density",[1]; listed as SP 1374,consistent functional endothelial phenotype (high CD31 expression)
same,"F-actin expression (cellular stress), Integrated Density",[1],low cellular stress (low actin expression)
same,ratio between CD31 and F-actin expression,[1],higher CD31/actin ratio

# From patent US20250281679A1, “BIOMIMETIC COATING FOR ENDOVASCULAR STENT” (INSERM (Institut National de la Santé et de la Recherche …, priority 2021, published 2025)
